Results taken from patent publication US20230248772A1, “PRODUCTS AND METHODS USING A PLATELET-DERIVED HEMOSTATIC AGENT FOR CONTROLLING BLEEDING AND IMPROVING HEALING” (Cellphire, Inc., priority 2015, published 2023).
Positions of bridges follow the written chain, without caps; N, C: chain ends. Non-standard residues stand in square brackets, D forms with d. Residues, ends and D or L forms follow the SMILES beside them. hArg = N=C(N)NCCCC[C@H](N)C(=O)O; Mpa = O=C(O)CCS

Tests used:
thrombin = assay: Thrombin generation in plasma; assay type: biochemical, human; settings: PPP from patients taking baby aspirin daily; normal range about 66-166 nM; FIG. 18
Procedure: Reagent Preparation. For thrombin generation, the following materials were used from manufacturers, as follows: FluCa Kit (Diagnostica Stago, Cat. No. 86197), Thrombin calibrator (Diagnostica Stago, Cat. No. 86197), PRP Reagent (Diagnostica Stago, Cat. No. 86196), OCTOPLAS®, a solvent detergent treated human pooled plasma (Octapharma, Cat. No. 8-68209-952-04). All frozen reagents were thawed in a 37° C. water bath before use. All reagents were rehydrated with sterile water using the volume printed on the reagent labels. Approximately 2 min after rehydration, the reagents were mixed by inverting vials 5 times, so no chunks or powder left; vortexing was not used. […]
Sample Analysis - Plate preparation and testing. For experiments containing thrombosomes, a thrombosomes dilution series was generated (dilutions of 194.4 K, 64.8 K, 21.6 K, and 7.2 K per µL were typically used; cell counts are determined by flow cytometry) for each the experimental thrombosomes and the reference thrombosomes. […] The plate was then incubated in the Fluoroskan Ascent 96 well fluorescent plate reader (Thrombinoscope) (ThermoFisher Scientific) for 10 minutes. […] The plate fluorescence was monitored for 75 minutes at an interval of 20 seconds and a temperature of 40-41° C.
The effect of aspirin treatment (concentration) on thrombin generation was measured. […]

NOD/SCID mice = assay: Tail-snip bleed model in clopidogrel-treated mice; assay type: in vivo, mouse; settings: ~3 times the clinical dose of clopidogrel for 5 days; untreated 9 minutes
Procedure: The mouse was treated with clopidogrel for 5 days. The mouse was anesthetized, the tail end was snipped off followed by thrombosomes being immediately administered. The time from tail snip to tail stop bleeding was recorded by visual inspection.
NOD/SCID mice were treated with ~ 3 times the clinical dose of clopidogrel for 5 days then assessed in the tail-snip bleed model. The bleed time (min) was extended to 17.8 minutes with clopidogrel treatment verses untreated at 9 minutes (data not shown).

[1] = cited from earlier work
platelet rich plasma = assay: T-TAS flow system occlusion of platelet rich plasma (collagen and tissue factor coated channel); assay type: cell-based; settings: untreated 18.43
From the text: (§1) Evaluation by T-TAS® using an AR chip. AR chips are characterized by a single channel containing collagen and tissue factor; they can be used to analyze clotting and platelet function.

platelets = assay: Transmission light aggregometry, collagen-induced platelet aggregation in PRP; assay type: cell-based; settings: collagen 10 µg/mL, all concentrations tested, FIG. 1
From the text: Plasma samples with platelet or thrombosomes or combination of both are loaded into cuvettes and placed into the aggregometry chambers. The chambers warm the sample and provide constant stirring. The initiation of aggregation can be done by multiple types of […] agents not limited to thrombin, ADP, collagen and any agent known to stimulate platelet aggregation. The samples can also have been taken as ex-vivo, or in-vitro supplemented with inhibitors. The instrument begins the assay by first recording the light transmission previous to stimulation for 2 minutes. The stimulant of interest is then introduced by the technician and the change in light transmission is recorded over time. The increase in light transmission corresponds to increase in platelet aggregation.
The aggregation of platelets (in platelet rich plasma) was evaluated using transmission light aggregometry. […] (FIG. 1).

whole blood = assay: T-TAS AR chip occlusion of whole blood under shear; assay type: cell-based
From the text: as §1

CC(=O)Oc1ccccc1C(=O)O [aspirin]
peak thrombin of aspirin plasma in absence of thrombosomes (thrombin): about 45 nM

COC(=O)[C@H](c1ccccc1Cl)N1CCc2sccc2C1 [clopidogrel]
bleed time (NOD/SCID mice): 17.8 min

N=C(N)NCCCC[C@@H]1NC(=O)CCSSC[C@@H](C(N)=O)NC(=O)[C@@H]2CCCN2C(=O)[C@H](Cc2c[nH]c3ccccc23)NC(=O)[C@H](CC(=O)O)NC(=O)CNC1=O [eptifibatide] ([Mpa][hArg]GDWPC-NH2; disulfide 1-7)
blood concentration ([1]; IV 180 µg/kg bolus followed by 2 µg/kg/min continuous infusion, typical): 1000 to 2000 nM
time for bleeding time to return to normal after drug stoppage ([1]; generally): ≤ 1 h
occlusion time of platelet rich plasma (platelet rich plasma; 9 µM eptifibatide, FIGS. 10A, 10B): over 30 minutes
collagen-induced platelet aggregation (platelets): completely inhibited
occlusion time of whole blood on T-TAS AR Chip (whole blood; 6 µM eptifibatide, untreated whole blood occluded at 8 minutes, FIG. 2): 16 min
effect on occlusion time of whole blood on T-TAS AR Chip (whole blood; eptifibatide at various concentrations): dose-dependent manner

CCCCS(=O)(=O)N[C@@H](Cc1ccc(OCCCCC2CCNCC2)cc1)C(=O)O [tirofiban]
occlusion time of platelet rich plasma (platelet rich plasma; 100 ng/mL tirofiban, FIGS. 9A, 9B): no occlusion
